Experimental findings from US7671054B1, “Reverse-turn mimetics and method relating thereto” (Choongwae Pharma Corporation, priority 2001, dated 2010) are described below.

Where two headings read alike, the source gives them in different places.

One experiment relates to SW480 cells. As to the kind of experiment: Growth inhibition assay (MTS). It counts as cell-based. The following applies: Homo sapiens, Table 5, SW480 cells, 48 hours treatment, MTS, read-out: Growth Inhibition (GI50, uM) SW480. The procedure, abridged:
(§1)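 Cells seeded at 10^4 per well, grown 24 h at 37° C, then exposed to compound at various concentrations for 48 hours. MTS added for 2 h; absorbance at 490 nm gave viability, with cytotoxicity calculated per concentration against pre-treatment reading.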

A further experiment has as its system HCT116 cells. Briefly: Growth inhibition assay (MTS). It counts as cell-based. The settings on record: Homo sapiens, Table 5, HCT116 cells, 48 hours treatment, MTS, read-out: Growth Inhibition (GI50, uM) HCT116. The procedure, abridged:
as §1

In the case of `CN1CC(=O)N2[C@@H](Cc3ccc(O)cc3)C(=O)N(Cc3ccc4ccccc4c3)C[C@@H]2N1C(=O)NCc1ccccc1` [Compound 9], the GI50 in the experiment with SW480 cells (SW480, 48 h) turned out to be 2.36 µM; with HCT116 cells (HCT-116, 48 h), 1.92 µM.

As to `C=CCN1CC(=O)N2[C@@H](Cc3ccc(O)cc3)C(=O)N(Cc3cccc(N4CCCC4)c3)C[C@@H]2N1C(=O)NCc1ccccc1` [Compound 125], the GI50 in the experiment with SW480 cells (SW480, 48 h) came out at 2.2 ± 0.3 µM; with HCT116 cells (HCT-116, 48 h), 1.9 ± 0.2 µM.

As for `C=CCN1CC(=O)N2[C@@H](CN([C@H](C)c3cccc4cccnc34)C(=O)[C@@H]2Cc2ccc(O)cc2)N1C(=O)NCc1ccccc1` [Compound 161], the concentration for 50% growth inhibition (GI50) with SW480 cells (SW480, 48 h) came out at 4.2 ± 0.4 µM; with HCT116 cells (HCT-116, 48 h), 4.1 ± 0.5 µM.

In the case of `C#CCN1CC(=O)N2[C@@H](Cc3ccc(O)cc3)C(=O)N(Cc3cccc4cccnc34)C[C@@H]2N1C(=O)NCc1ccccc1` [Compound 87], the concentration for 50% growth inhibition (GI50) with SW480 cells (SW480, 48 h) worked out at 0.6 ± 0.2 µM; in the experiment on HCT116 cells (HCT-116, 48 h), 0.5 ± 0.1 µM.

As to `C=CCN1CC(=O)N2[C@@H](Cc3ccc(O)cc3)C(=O)N(Cc3ccc(OC)cc3)C[C@@H]2N1C(=O)NCc1ccccc1` [Compound 178], the GI50 in the experiment on SW480 cells (SW480, 48 h) worked out at 1.6 ± 0.2 µM; with HCT116 cells (HCT-116, 48 h), 1.5 ± 4.4 µM.

Regarding `C=CCN1CC(=O)N2[C@@H](Cc3ccc(OP(=O)(O)O)cc3)C(=O)N(Cc3ccc(OC)cc3)C[C@@H]2N1C(=O)NCc1ccccc1` [Compound 179], the GI50 in the experiment on SW480 cells was determined as 1.5 ± 0.1 µM; in the experiment with HCT116 cells (HCT-116), 1.6 ± 0.1 µM.

Regarding `CN(Cc1ccccc1)c1cccc(CN2C[C@H]3N(C(=O)CN(C)N3C(=O)NCc3ccccc3)[C@@H](Cc3ccc(O)cc3)C2=O)c1` [Compound 56], the GI50 in the experiment with SW480 cells (SW480, 48 h) turned out to be 10.8 µM; with HCT116 cells (HCT-116, 48 h), 9.1 µM.

`CN1CC(=O)N2C(CN(Cc3ccc(Cl)cc3Cl)C(=O)[C@@H]2Cc2ccc(O)cc2)N1C(=O)NCc1ccccc1` (stereo partly drawn) [Compound 18]: the 50% growth inhibitory concentration (GI50) in the experiment on SW480 cells (SW480, 48 h) was determined as 4.63 µM; in the experiment on HCT116 cells (HCT-116, 48 h), 3.52 µM.

Regarding `CN1CC(=O)N2[C@@H](Cc3ccc(O)cc3)C(=O)N(Cc3ccccc3N3CCOCC3)C[C@@H]2N1C(=O)NCc1ccccc1` [Compound 72], the 50% growth inhibitory concentration (GI50) with SW480 cells (SW480, 48 h) amounted to 10.9 ± 0.6 µM; in the experiment with HCT116 cells (HCT-116, 48 h), 10.3 ± 1.6 µM.

On to `C#CCn1cc2c(CN3C[C@H]4N(C(=O)CN(C)N4C(=O)NCc4ccccc4)[C@@H](Cc4ccc(O)cc4)C3=O)cccc2n1` [Compound 71], for which the 50% growth inhibitory concentration (GI50) in the experiment on SW480 cells (SW480, 48 h) was 4.6 ± 0.5 µM; with HCT116 cells (HCT-116, 48 h) it was 3.6 ± 0.7 µM.

As for `CN1CC(=O)N2[C@@H](Cc3ccc(O)cc3)C(=O)N(Cc3ccc(F)cc3C(F)(F)F)C[C@@H]2N1C(=O)NCc1ccccc1` [Compound 23], the GI50 in the experiment on SW480 cells (SW480, 48 h) is 3.9 µM; with HCT116 cells (HCT-116, 48 h), 25.4 µM.

In the case of `CCCN1CC(=O)N2[C@@H](Cc3ccc(O)cc3)C(=O)N(Cc3ccccc3)C[C@@H]2N1C(=O)NCc1ccccc1` [Compound 138], the concentration for 50% growth inhibition (GI50) with SW480 cells (SW480, 48 h) is 4 ± 0.4 µM; with HCT116 cells (HCT-116, 48 h), 3.9 ± 0.7 µM.

Regarding `CN(C)c1cccc(CN2C[C@H]3N(C(=O)CN(C)N3C(=O)NCc3ccccc3)[C@@H](Cc3ccc(O)cc3)C2=O)c1` [Compound 55], the GI50 in the experiment with SW480 cells (SW480, 48 h) turned out to be 4.6 ± 0.5 µM; in the experiment with HCT116 cells (HCT-116, 48 h) it was 4.1 ± 0.7 µM.

Regarding `C[C@H](c1ccc(F)cc1F)N1C[C@H]2N(C(=O)CN(C)N2C(=O)NCc2ccccc2)[C@@H](Cc2ccc(O)cc2)C1=O` [Compound 165], the GI50 in the experiment with SW480 cells (SW480, 48 h) worked out at 22.8 ± 0.9 µM; in the experiment on HCT116 cells (HCT-116, 48 h) it was 24.4 ± 1.9 µM.

As for `C=CCN1CC(=O)N2[C@@H](CN([C@H](C)c3ccccc3)C(=O)[C@@H]2Cc2ccc(O)cc2)N1C(=O)NCc1ccccc1` [Compound 154], the 50% growth inhibitory concentration (GI50) is 0.7 ± 0.2 µM with SW480 cells (SW480, 48 h) and 0.7 ± 0.2 µM in the experiment on HCT116 cells (HCT-116, 48 h).

With `CC(C)N1CC(=O)N2[C@@H](Cc3ccc(O)cc3)C(=O)N(Cc3ccc(F)cc3F)C[C@@H]2N1C(=O)NCc1ccccc1` [Compound 146], the GI50 in the experiment on SW480 cells (SW480, 48 h) came to 3.7 ± 0.5 µM; in the experiment with HCT116 cells (HCT-116, 48 h), 4 ± 0.5 µM.

Regarding `C=CCN1CC(=O)N2[C@@H](Cc3ccc(O)cc3)C(=O)N(Cc3ccc(F)cc3F)C[C@@H]2N1C(=O)NCc1ccc(Cl)c(Cl)c1` [Compound 149], the GI50 in the experiment with SW480 cells (SW480, 48 h) stood at 2.3 ± 0.1 µM; in the experiment on HCT116 cells (HCT-116, 48 h), 2.3 ± 0.4 µM.

As for `C=CCN1CC(=O)N2[C@@H](Cc3ccc(O)cc3)C(=O)N(Cc3cccc(NC)c3)C[C@@H]2N1C(=O)NCc1ccccc1` [Compound 163], the GI50 in the experiment with SW480 cells (SW480, 48 h) was determined as 2.4 ± 0.2 µM; in the experiment on HCT116 cells (HCT-116, 48 h), 2.3 ± 0.4 µM.

`CN1CC(=O)N2[C@@H](Cc3ccc(O)cc3)C(=O)N(Cc3ccccc3C(F)(F)F)C[C@@H]2N1C(=O)NCc1ccccc1` [Compound 7]: the GI50 in the experiment with SW480 cells (SW480, 48 h) stood at 1.22 µM; in the experiment on HCT116 cells (HCT-116, 48 h), 0.73 µM.

Regarding `C=CCN1CC(=O)N2[C@@H](Cc3ccc(O)cc3)C(=O)N(Cc3ccc(C)c(N4CCOCC4)c3)C[C@@H]2N1C(=O)NCc1ccccc1` [Compound 105], the GI50 in the experiment with SW480 cells (SW480, 48 h) was found to be 2.8 ± 0.2 µM; with HCT116 cells (HCT-116, 48 h), 2.1 ± 0.3 µM.

On to `C=CCN1CC(=O)N2[C@@H](Cc3ccc(O)cc3)C(=O)N(Cc3ccccc3)C[C@@H]2N1C(=O)NCc1ccccc1` [Compound 134], for which the GI50 in the experiment on SW480 cells (SW480, 48 h) was 1.4 ± 0.4 µM; in the experiment with HCT116 cells (HCT-116, 48 h) it was 0.8 ± 0.7 µM.

Consider `C=CCN1CC(=O)N2[C@@H](Cc3ccc(O)cc3)C(=O)N(Cc3cccc(N4CCOCC4)c3)C[C@@H]2N1C(=O)NCc1ccccc1` [Compound 99], for which the GI50 stood at 1 ± 0.05 µM in the experiment on SW480 cells (SW480, 48 h) and 0.7 ± 0.1 µM with HCT116 cells (HCT-116, 48 h).

With `CN1CC(=O)N2[C@@H](Cc3ccc(O)cc3)C(=O)N(Cc3cccc4nn(CCN5CCOCC5)cc34)C[C@@H]2N1C(=O)NCc1ccccc1` [Compound 75], the 50% growth inhibitory concentration (GI50) turned out to be 2 ± 0.1 µM in the experiment with SW480 cells (SW480, 48 h) and 4.5 ± 0.4 µM with HCT116 cells (HCT-116, 48 h).

On to `CN1CC(=O)N2[C@@H](Cc3ccc(O)cc3)C(=O)N(Cc3cccc(OCCN4CCOCC4)c3)C[C@@H]2N1C(=O)NCc1ccccc1` [Compound 102], for which the GI50 in the experiment with SW480 cells (SW480, 48 h) amounted to 2.5 ± 0.4 µM; with HCT116 cells (HCT-116, 48 h) it was 4.9 ± 1.2 µM.

Regarding `C=CCN1CC(=O)N2[C@@H](Cc3ccc(O)cc3)C(=O)N(Cc3ccc(F)c(F)c3)C[C@@H]2N1C(=O)NCc1ccccc1` [Compound 148], the GI50 in the experiment with SW480 cells (SW480, 48 h) amounted to 1.3 ± 0.1 µM; in the experiment with HCT116 cells (HCT-116, 48 h) it was 1 ± 0.3 µM.

For `C=CCN1CC(=O)N2[C@@H](CC3(O)C=CC(=O)C=C3)C(=O)N(Cc3ccc(F)cc3F)C[C@@H]2N1C(=O)NCc1ccccc1` [Compound 151], the 50% growth inhibitory concentration (GI50) in the experiment on SW480 cells (SW480, 48 h) came out at 11.2 ± 1.3 µM; in the experiment with HCT116 cells (HCT-116, 48 h), 8.6 ± 0.9 µM.

Turning to `C=CCN1CC(=O)N2[C@@H](Cc3ccc(O)cc3)C(=O)N(Cc3cc(N(C)C(C)C)cc(C(F)(F)F)c3)C[C@@H]2N1C(=O)NCc1ccccc1` [Compound 126], the 50% growth inhibitory concentration (GI50) in the experiment with SW480 cells (SW480, 48 h) came to 19.4 ± 3 µM; in the experiment with HCT116 cells (HCT-116, 48 h), 11.6 ± 3 µM.

`CN1CC(=O)N2[C@@H](Cc3ccc(O)cc3)C(=O)N(Cc3cccc4cccnc34)C[C@@H]2N1C(=O)NCc1ccccc1` [Compound 8]: the GI50 with SW480 cells (SW480, 48 h) was < 0.3 µM; in the experiment with HCT116 cells (HCT-116, 48 h) it was < 0.3 µM.

In the case of `C#CCN1CC(=O)N2[C@@H](Cc3ccc(O)cc3)C(=O)N(Cc3ccc4ncsc4c3)C[C@@H]2N1C(=O)NCc1ccccc1` [Compound 113], the 50% growth inhibitory concentration (GI50) in the experiment with SW480 cells (SW480, 48 h) came to 6.8 ± 1.4 µM; in the experiment on HCT116 cells (HCT-116, 48 h), 3.7 ± 0.6 µM.

Turning to `CN1CC(=O)N2[C@@H](Cc3ccc(O)cc3)C(=O)N(Cc3cccc(N4CCCC4=O)c3)C[C@@H]2N1C(=O)NCc1ccccc1` [Compound 121], the concentration for 50% growth inhibition (GI50) with SW480 cells (SW480, 48 h) came to 8.2 ± 0.5 µM; in the experiment on HCT116 cells (HCT-116, 48 h), 13.1 ± 0.6 µM.

In the case of `CN1CC(=O)N2[C@@H](Cc3ccc(O)cc3)C(=O)N(Cc3cccc4c3cnn4C)C[C@@H]2N1C(=O)NCc1ccccc1` [Compound 35], the 50% growth inhibitory concentration (GI50) came out at 4.7 ± 0.5 µM with SW480 cells (SW480, 48 h) and 5 ± 0.7 µM with HCT116 cells (HCT-116, 48 h).

On to `CN1CC(=O)N2[C@@H](Cc3ccc(O)cc3)C(=O)N(Cc3ccc4cnn(Cc5ccccc5N)c4c3)C[C@@H]2N1C(=O)NCc1ccccc1` [Compound 61], for which the 50% growth inhibitory concentration (GI50) in the experiment on SW480 cells (SW480, 48 h) is 11.3 ± 6 µM; in the experiment with HCT116 cells (HCT-116, 48 h), 3.6 ± 0.3 µM.

`CN1CC(=O)N2[C@@H](Cc3ccc(O)cc3)C(=O)N(Cc3cc(F)c(F)c(F)c3)C[C@@H]2N1C(=O)NCc1ccccc1` [Compound 17]: the GI50 was determined as 1.12 µM with SW480 cells (SW480, 48 h) and 0.74 µM in the experiment with HCT116 cells (HCT-116, 48 h).

What is called GI50 is the concentration at which growth is held to half of that of the control.
